In patent US6713043B2 (priority 1996, dated 2004):
Values after ≈ are worked out from the molar mass of the structure shown.

System: M. tuberculosis (21 clinical and CDC strains, pan-sensitive and multidrug resistant)
Assay: microbe, parasite or virus in culture
Format: cell-based, Mycobacterium tuberculosis

For `Cc1ccc(C)c(OCCCC(C)(C)C(=O)O)c1` [GFZ, Gemfibrozil], the “difference in sensitivity among the 21 strains” value was “No greater than a two fold difference” and the MIC (Mycobacterium tuberculosis, 504 h, read-out: MIC (GFZ concentration at which no growth was seen)) was 100 to 200 µg/mL (≈ 399 to 799 µM).
